In the supplement of paper PMC11061612:

Assays:
Assay in all cases: Bliss excess, mean over the matrix (fraction); higher = more synergy
[1] = test system: HDQ-P1 (Breast Carcinoma)
How it was run: (§1)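 After 24 hours at 37°C and 5% CO2 in 1536-well plates, cells in DMEM/F12 or RPMI plus 10% FBS received two-drug dose matrices for 72 hours. Viability came from CellTiter-Glo 2.0 luminescence and was scaled as inhibition, anchored at 0 by vehicle wells and at 1 by blank wells. Combination Emax is taken as the second-highest inhibition in the matrix, and Bliss excess as the observed combination effect less EA + EB − EA·EB, with EA and EB the single-agent effects.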

[2] = test system: HL-60 (Acute Myeloid Leukemia)
How it was run: as §1

[3] = test system: MS751 (Cervical Carcinoma)
How it was run: as §1

[4] = test system: KCL-22 (Chronic Myelogenous Leukemia)
How it was run: as §1

[5] = test system: KARPAS-45 (T-Lymphoblastic Leukemia)
How it was run: as §1

[6] = test system: MOLT-16 (T-Lymphoblastic Leukemia)
How it was run: as §1

[7] = test system: K-562 (Chronic Myelogenous Leukemia)
How it was run: as §1

ES8 (Ewing's Sarcoma) = test system: ES8 (Ewing's Sarcoma)
How it was run: as §1

[8] = test system: GR-ST (B-Lymphoblastic Leukemia)
How it was run: as §1

[9] = test system: SU-DHL-8 (B-Cell Non-Hodgkin's Lymphoma)
How it was run: as §1

NCI-H2818 (Mesothelioma) = test system: NCI-H2818 (Mesothelioma)
How it was run: as §1

[10] = test system: SR (Other Blood Carcinomas)
How it was run: as §1

[11] = test system: BFTC-905 (Bladder Carcinoma)
How it was run: as §1

ES1 (Ewing's Sarcoma) = test system: ES1 (Ewing's Sarcoma)
How it was run: as §1

[12] = test system: L-540 (Hodgkin's Lymphoma)
How it was run: as §1

WM-115 (Melanoma) = test system: WM-115 (Melanoma)
How it was run: as §1

U251 (Low Grade Glioma) = test system: U251 (Low Grade Glioma)
How it was run: as §1

[13] = test system: EVSA-T (Breast Carcinoma)
How it was run: as §1

[14] = test system: SW837 (Colorectal Carcinoma)
How it was run: as §1

Row | Structure (SMILES) | Bliss excess [1] | Bliss excess [2] | Bliss excess [3] | Bliss excess [4] | Bliss excess [5] | Bliss excess [6] | Bliss excess [7] | Bliss excess (ES8 (Ewing's Sarcoma)) | Bliss excess [8] | Bliss excess [9] | Bliss excess (NCI-H2818 (Mesothelioma)) | Bliss excess [10] | Bliss excess [11] | Bliss excess (ES1 (Ewing's Sarcoma)) | Bliss excess [12] | Bliss excess (WM-115 (Melanoma)) | Bliss excess (U251 (Low Grade Glioma)) | Bliss excess [13] | Bliss excess [14]
1 | COc1cc2c(cc1OCCCCCOc1cc3c(cc1OC)C(=O)N1C=C(C)C[C@H]1C=N3)N=C[C@@H]1CC(C)=CN1C2=O [SG3199] + O=C(c1cc(Cc2n[nH]c(=O)c3ccccc23)ccc1F)N1CCN(C(=O)C2CC2)CC1 [Olaparib] (first compound max 0.001 µM, 7x7, partner max 10 µM) | -0.035 | -0.034 | -0.075 | -0.0049 | -0.0076 | 0.0336 | -0.0041 | -0.0206 | -0.0339 | 0.0547 | -0.0642 | 0.0238 | -0.054 | 0.0027 | -0.0272 | -0.0494 | -0.0016 | -0.0094 | -0.0384
2 | CN(C)CCCOc1ccc(-c2ccc3ncc4c(c3c2)n(C2CCOCC2)c(=O)n4C)cn1 [AZD0156] + CCN(CCO)CCCOc1ccc2c(Nc3cc(CC(=O)Nc4cccc(F)c4)[nH]n3)ncnc2c1 [AZD2811] (first compound max 1 µM, 7x7, partner max 1 µM) | -0.0634 | -0.0762 | -0.0235 | 0.0703 | -0.0515 | -0.0087 | -0.0011 | -0.0153 | 0.0033 | 0.0377 | -0.0491 | -0.0666 | 0.0116 | 0.148 | 0.0074 | -0.0368 | 0.0131 | 0.0104 | -0.0263
3 | COc1cccc(OCCCN)c1-c1cc(Nc2cnc(C#N)cn2)n[nH]1 [Prexasertib] + O=C(c1cc(Cc2n[nH]c(=O)c3ccccc23)ccc1F)N1CCN(C(=O)C2CC2)CC1 [Olaparib] (first compound max 1 µM, 7x7, partner max 10 µM) | 0.0002 | -0.0781 | 0.034 | -0.0599 | -0.0081 | -0.0198 | -0.105 | -0.066 | -0.111 | -0.0668 | -0.0136 | 0.0119 | -0.0751 | -0.0161 | -0.0351 | -0.0557 | 0.0369 | -0.0312 | -0.0854
4 | Cc1cc2ncnn2cc1Nc1ncc2c(n1)n(C1CCOCC1)c(=O)n2C [AZD7648] + C=CCn1c(=O)c2cnc(Nc3ccc(N4CCN(C)CC4)cc3)nc2n1-c1cccc(C(C)(C)O)n1 [AZD1775] (first compound max 10 µM, partner max 1 µM) | -0.0805 | -0.0457 | 0.0245 | 0.0015 | 0.0367 | 0.0163 | 0.0017 | -0.0014 | -0.117 | -0.0079 | 0.0563 | -0.0375 | 0.022 | 0.0181 | 0.0106 | 0.0217 | -0.014 | -0.024 | 0.0241
5 | COc1cccc(OCCCN)c1-c1cc(Nc2cnc(C#N)cn2)n[nH]1 [Prexasertib] + Cc1cc2ncnn2cc1Nc1ncc2c(n1)n(C1CCOCC1)c(=O)n2C [AZD7648] (first compound max 1 µM, 7x7, partner max 10 µM) | -0.0236 | 0.0133 | -0.0156 | -0.0133 | -0.0044 | 0.0121 | -0.0282 | -0.0489 | -0.0363 | -0.0221 | -0.032 | 0.0003 | -0.0492 | 0.0088 | -0.0223 | -0.0102 | -0.0114 | 0.017 | -0.0143
6 | Cc1cc2ncnn2cc1Nc1ncc2c(n1)n(C1CCOCC1)c(=O)n2C [AZD7648] + C[C@@H]1COCCN1C2=NC(=NC(=C2)C3(CC3)[S@](=N)(=O)C)C4=C5C=CNC5=NC=C4 [AZD6738] (first compound max 10 µM, 7x7, partner max 10 µM) | -0.0229 | -0.0079 | 0.0606 | 0.0341 | 0.0129 | -0.0368 | -0.0096 | 0.0071 | -0.116 | -0.0136 | 0.0738 | 0.0148 | 0.0081 | -0.0001 | -0.0031 | 0.0145 | 0.0581 | 0.0622 | -0.0077
7 | Cc1cc2ncnn2cc1Nc1ncc2c(n1)n(C1CCOCC1)c(=O)n2C [AZD7648] + O=C(c1cc(Cc2n[nH]c(=O)c3ccccc23)ccc1F)N1CCN(C(=O)C2CC2)CC1 [Olaparib] (first compound max 10 µM, 7x7, partner max 10 µM) | 0.0133 | -0.0151 | 0.0017 | -0.0367 | 0.0031 | -0.019 | 0.0107 | -0.0626 | -0.0706 | 0.0195 | -0.0776 | 0.0433 | -0.0299 | -0.0604 | -0.0352 | -0.0391 | 0.0043 | -0.0077 | -0.0246
8 | CCN(CCO)CCCOc1ccc2c(Nc3cc(CC(=O)Nc4cccc(F)c4)[nH]n3)ncnc2c1 [AZD2811] + C[C@@H]1COCCN1C2=NC(=NC(=C2)C3(CC3)[S@](=N)(=O)C)C4=C5C=CNC5=NC=C4 [AZD6738] (first compound max 1 µM, 7x7, partner max 10 µM) | -0.0597 | -0.0776 | 0.041 | 0.0285 | -0.0944 | -0.0021 | -0.0494 | -0.0554 | -0.0298 | 0.134 | -0.0925 | -0.0533 | -0.0462 | 0.0413 | -0.0078 | -0.0345 | -0.0255 | -0.0263 | -0.0252
9 | Cc1cc2ncnn2cc1Nc1ncc2c(n1)n(C1CCOCC1)c(=O)n2C [AZD7648] + CN(C)CCCOc1ccc(-c2ccc3ncc4c(c3c2)n(C2CCOCC2)c(=O)n4C)cn1 [AZD0156] (first compound max 10 µM, 7x7, partner max 1 µM) | 0.0157 | 0.0176 | 0.0217 | 0.0542 | -0.0274 | 0.0841 | -0.0026 | 0.0803 | -0.0687 | 0.016 | -0.0055 | 0.0078 | 0.0314 | 0.0136 | -0.0074 | -0.0098 | 0.0214 | -0.0126 | 0.0255
10 | CN(C)CCCOc1ccc(-c2ccc3ncc4c(c3c2)n(C2CCOCC2)c(=O)n4C)cn1 [AZD0156] + C[C@@H]1COCCN1C2=NC(=NC(=C2)C3(CC3)[S@](=N)(=O)C)C4=C5C=CNC5=NC=C4 [AZD6738] (first compound max 1 µM, 7x7, partner max 10 µM) | 0.0214 | -0.0159 | -0.0221 | 0.0274 | 0.0333 | -0.0399 | -0.0079 | 0.0169 | -0.0006 | 0.0169 | -0.0511 | 0.015 | 0.0463 | 0.0554 | -0.0163 | -0.0565 | -0.0087 | 0.0081 | 0.0071
11 | Cc1cc2ncnn2cc1Nc1ncc2c(n1)n(C1CCOCC1)c(=O)n2C [AZD7648] + CCN(CCO)CCCOc1ccc2c(Nc3cc(CC(=O)Nc4cccc(F)c4)[nH]n3)ncnc2c1 [AZD2811] (first compound max 10 µM, 7x7, partner max 1 µM) | -0.0154 | -0.0639 | -0.0094 | 0.115 | -0.0341 | 0.0058 | 0.0127 | -0.011 | -0.0705 | 0.038 | 0.0283 | -0.0225 | 0.0469 | 0.0855 | 0.048 | 0.0205 | -0.0046 | 0.0122 | 0.0018
12 | C=CCn1c(=O)c2cnc(Nc3ccc(N4CCN(C)CC4)cc3)nc2n1-c1cccc(C(C)(C)O)n1 [AZD1775] + C[C@@H]1COCCN1C2=NC(=NC(=C2)C3(CC3)[S@](=N)(=O)C)C4=C5C=CNC5=NC=C4 [AZD6738] (first compound max 1 µM, partner max 10 µM) | -0.0038 | 0.0975 | 0.0075 | 0.0331 | 0.0465 | 0.0101 | 0.0433 | 0.0178 | -0.0217 | -0.0202 | -0.0577 | 0.0174 | 0.0665 | 0.0487 | -0.0091 | -0.0523 | 0.0604 | 0.033 | 0.0057
13 | C=CCn1c(=O)c2cnc(Nc3ccc(N4CCN(C)CC4)cc3)nc2n1-c1cccc(C(C)(C)O)n1 [AZD1775] + O=C(c1cc(Cc2n[nH]c(=O)c3ccccc23)ccc1F)N1CCN(C(=O)C2CC2)CC1 [Olaparib] (first compound max 1 µM, partner max 10 µM) | -0.0441 | -0.0554 | -0.0021 | -0.0415 | -0.0302 | 0.0004 | -0.0678 | 0.0059 | -0.0334 | -0.0157 | 0.0324 | 0.0597 | -0.0292 | -0.0114 | -0.045 | -0.0169 | -0.0154 | 0.0622 | -0.0125
14 | COc1cccc2c1C(=O)c1c(O)c3c(c(O)c1C2=O)C[C@@](O)(C(=O)CO)C[C@@H]3O[C@H]1C[C@H](N)[C@H](O)[C@H](C)O1 [Doxorubicin] + Cc1cc2ncnn2cc1Nc1ncc2c(n1)n(C1CCOCC1)c(=O)n2C [AZD7648] (first compound max 1 µM, 7x7, partner max 10 µM) | 0.0561 | 0.108 | 0.135 | 0.086 | -0.0006 | 0.143 | 0.076 | 0.125 | 0.0279 | 0.0145 | -0.0019 | 0.0651 | 0.131 | 0.119 | 0.0793 | -0.0234 | 0.0913 | 0.0503 | 0.0068
15 | CN(C)CCCOc1ccc(-c2ccc3ncc4c(c3c2)n(C2CCOCC2)c(=O)n4C)cn1 [AZD0156] + C=CCn1c(=O)c2cnc(Nc3ccc(N4CCN(C)CC4)cc3)nc2n1-c1cccc(C(C)(C)O)n1 [AZD1775] (first compound max 1 µM, partner max 1 µM) | 0.0118 | -0.0177 | -0.0154 | -0.0326 | -0.0182 | -0.0108 | -0.0269 | -0.0464 | -0.0229 | 0.0032 | -0.0556 | -0.0509 | -0.0022 | -0.0018 | 0.0604 | -0.0383 | 0.005 | -0.0618 | -0.0431
16 | CCc1c2c(nc3ccc(O)cc13)-c1cc3c(c(=O)n1C2)COC(=O)[C@]3(O)CC [SN-38] + O=C(c1cc(Cc2n[nH]c(=O)c3ccccc23)ccc1F)N1CCN(C(=O)C2CC2)CC1 [Olaparib] (first compound max 0.3 µM, 7x7, partner max 10 µM) | 0.025 | – | 0.053 | 0.0525 | – | – | 0.0222 | 0.0636 | -0.05 | – | 0.0548 | 0.0614 | 0.0451 | 0.0779 | 0.0196 | 0.0847 | – | 0.0738 | 0.0302
